Assay results published in ChEMBL document CHEMBL1201862, “PubChem BioAssay data set” (2004).
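Each compound was tested at five concentrations against cells in 96-well plates for 48 hours. GI50 marks 50% less growth.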 The source made the active and inactive calls. No stated cut-off is given here; in the data, active = GI50 up to about 1.1 µM and inactive = higher.

Experiments:
Test in all cases: inhibition of tumour cell growth, NCI panel, 48 h
ACHN = tested on: ACHN
EKVX = tested on: EKVX
HT-29 = tested on: HT-29
Hs-578T = tested on: Hs-578T
MCF7 = tested on: MCF7
MDA-MB-231 = tested on: MDA-MB-231
NCI-H23 = tested on: NCI-H23
NCI/ADR-RES = tested on: NCI/ADR-RES
OVCAR-3 = tested on: OVCAR-3
SF-268 = tested on: SF-268
SF-295 = tested on: SF-295
SK-MEL-28 = tested on: SK-MEL-28
SK-OV-3 = tested on: SK-OV-3
SN12C = tested on: SN12C
SNB-75 = tested on: SNB-75
TK-10 = tested on: TK-10
U-251 = tested on: U-251
UACC-62 = tested on: UACC-62
UO-31 = tested on: UO-31
MDA-N = tested on: MDA-N

SMILES	GI50 (ACHN)	GI50 (EKVX)	GI50 (HT-29)	GI50 (Hs-578T)	GI50 (MCF7)	GI50 (MDA-MB-231)	GI50 (NCI-H23)	GI50 (NCI/ADR-RES)	GI50 (OVCAR-3)	GI50 (SF-268)	GI50 (SF-295)	GI50 (SK-MEL-28)	GI50 (SK-OV-3)	GI50 (SN12C)	GI50 (SNB-75)	GI50 (TK-10)	GI50 (U-251)	GI50 (UACC-62)	GI50 (UO-31)	GI50 (MDA-N)
CC(C)(Oc1ccc(Cl)cc1)C(=O)N(C(=O)N1CCC(c2ccccc2)CC1)c1ccccc1	40.6 µM (inactive)	11.1 µM (inactive)	22.5 µM (inactive)	> 73.8 µM (inactive)	23.7 µM (inactive)	> 100 µM (inactive)	8.79 µM (inactive)	> 29.6 µM (inactive)	> 73.5 µM (inactive)	> 100 µM (inactive)	23.8 µM (inactive)	> 100 µM (inactive)	99.8 µM (inactive)	27.4 µM (inactive)	> 26.1 µM (inactive)	> 30.1 µM (inactive)	> 25.2 µM (inactive)	> 57.5 µM (inactive)	22.4 µM (inactive)	
Cc1cccc(Nc2cn(CCOc3ccccc3)c(=O)n(CCOc3ccccc3)c2=O)c1	> 100 µM (inactive)	2.54 µM (inactive)		> 100 µM (inactive)	> 100 µM (inactive)		> 100 µM (inactive)		> 100 µM (inactive)	> 100 µM (inactive)	> 100 µM (inactive)	> 100 µM (inactive)		> 100 µM (inactive)			> 100 µM (inactive)	> 100 µM (inactive)	> 100 µM (inactive)	> 100 µM (inactive)
C=C1CC/C=C(\C)C(=O)C[C@@H]2[C@@H]1CC2(C)C [BUDDLEDIN C]	2.18 µM (inactive)	7.45 µM (inactive)	2.44 µM (inactive)		0.561 µM (active)	7.53 µM (inactive)	5.2 µM (inactive)	4.53 µM (inactive)	6.34 µM (inactive)	14.1 µM (inactive)	15.5 µM (inactive)	2.75 µM (inactive)	20.3 µM (inactive)	1.59 µM (inactive)	10.6 µM (inactive)	3.13 µM (inactive)	6.79 µM (inactive)	5.96 µM (inactive)	2.62 µM (inactive)	1.2 µM (inactive)
CCSc1nc(=S)n(-c2ccccc2)c(C)c1C(C)=O	> 100 µM (inactive)	> 100 µM (inactive)	> 100 µM (inactive)	> 100 µM (inactive)	> 100 µM (inactive)	> 100 µM (inactive)	> 100 µM (inactive)	> 100 µM (inactive)	> 100 µM (inactive)	> 100 µM (inactive)	> 100 µM (inactive)	> 100 µM (inactive)	> 100 µM (inactive)	> 100 µM (inactive)	> 100 µM (inactive)	> 100 µM (inactive)	> 100 µM (inactive)	> 100 µM (inactive)	> 100 µM (inactive)	
S=C(NN=C1NCCCN1)Nc1ccccc1	> 100 µM (inactive)	> 100 µM (inactive)	> 100 µM (inactive)	> 100 µM (inactive)	> 100 µM (inactive)		> 100 µM (inactive)	> 100 µM (inactive)	> 100 µM (inactive)	> 100 µM (inactive)	> 100 µM (inactive)	> 100 µM (inactive)	> 100 µM (inactive)		> 100 µM (inactive)	> 100 µM (inactive)	> 100 µM (inactive)	> 100 µM (inactive)	> 100 µM (inactive)	
CC(C)=CCC/C(C)=C/COC(C)(C)C1=CCC(C)CC1.CC(C)=CCC/C(C)=C/COC1CC(C)CCC1=C(C)C (stereo unspecified)	> 100 µM (inactive)	> 100 µM (inactive)	> 100 µM (inactive)	> 100 µM (inactive)	65.3 µM (inactive)		> 100 µM (inactive)		> 100 µM (inactive)	> 100 µM (inactive)	> 100 µM (inactive)	> 100 µM (inactive)	> 100 µM (inactive)	> 100 µM (inactive)	> 100 µM (inactive)	> 100 µM (inactive)	> 100 µM (inactive)	> 100 µM (inactive)	> 100 µM (inactive)	> 100 µM (inactive)
